Source: patent US11999746B2, “Compounds” (GlaxoSmithKline Intellectual Property Development Limited, priority 2014, dated 2024)

What was measured:
[1] = target: T1, recombinant human Lp-PLA2 (Homo sapiens, UniProt Q13093); test: (1a) PED6 assay, recombinant human Lp-PLA2 (rhLp-PLA2); type: biochemical; conditions: Examples 1-167 and 413-430 were tested here, one experiment or average of multiple experiments, read-out: rhLp-PLA2 (pIC50) (converted)
T1 sequence (Q13093 22-441): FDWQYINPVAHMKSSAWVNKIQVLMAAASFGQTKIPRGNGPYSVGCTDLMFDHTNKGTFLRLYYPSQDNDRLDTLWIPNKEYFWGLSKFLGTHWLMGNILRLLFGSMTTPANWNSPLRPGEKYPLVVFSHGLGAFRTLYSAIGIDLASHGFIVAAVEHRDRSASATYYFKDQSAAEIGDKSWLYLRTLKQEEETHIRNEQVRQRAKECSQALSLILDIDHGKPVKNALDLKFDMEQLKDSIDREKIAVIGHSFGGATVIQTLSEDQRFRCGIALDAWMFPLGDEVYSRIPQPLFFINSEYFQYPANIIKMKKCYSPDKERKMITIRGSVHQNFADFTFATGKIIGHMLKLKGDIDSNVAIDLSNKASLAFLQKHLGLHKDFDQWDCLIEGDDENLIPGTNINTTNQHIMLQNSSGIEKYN
In short: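 PED6 (2 μM final after 1:1 addition of 4 μM stock) cleavage by rhLp-PLA2 (4 nM working solution) in 50 mM HEPES pH 7.4, 150 mM NaCl, 1 mM CHAPS; compounds preincubated with enzyme 30 minutes, reaction 20 min at room temperature. Fluorescence at ex 480/em 540; pIC50 from curve fit.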

[2] = target: T2, Lp-PLA2 in human plasma (Homo sapiens, UniProt Q13093); test: (3a) Lp-PLA2 human plasma Thio-PAF assay; type: biochemical; conditions: (3a) Thio-PAF assay, pooled human plasma; Examples 1-265 and 413-430 were tested here; read-out: pIC50 in the Lp-PLA2 human plasma assay (converted)
T2 construct: from tissue; host or cells: pooled human plasma
T2 sequence (Q13093 22-441): T1 sequence (Q13093 22-441)
In short: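 Endogenous Lp-PLA2 activity in frozen pooled human plasma measured as thiol release from 2-thio-PAF, detected by CPM fluorescence (ex 380/em 485). Compound preincubation 30 min; 2-min reaction in HEPES pH 7.4 buffer with NEM, stopped with 5% TFA, read 40 min later at room temperature; values as pIC50.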

Row | Structure (SMILES) | IC50 [1] [nM] | IC50 [2] [nM]
1 | O=c1nc(OCc2cc(F)c(Oc3ccnc(C(F)(F)F)c3)c(F)c2)cc2n1CC1CCCN21 (stereo not drawn) [Example E75, 3-((3,5-difluoro-4-((2-(trifluoromethyl)pyridin-4-yl)oxy)benzyl)oxy)-7,8,8a, 9-tetrahydro pyrrolo[1′, 2′:3, 4]imidazo[1,2-c]pyrimidin-1(6H)-one] | ≤ 1 | ≤ 100
2 | O=c1nc(OCc2cnc(Oc3ccc(Cl)c(C(F)(F)F)c3)c(F)c2)cc2n1CC1CCCN21 (stereo not drawn) [Example E76, 3-((6-(4-Chloro-3-(trifluoromethyl)phenoxy)-5-fluoropyridin-3-yl)methoxy)-7,8,8a,9 tetra hydro pyrrolo[1′,2′:3,4]imidazo[1,2-c]pyrimidin-1(6H)-one] | ≤ 100 | ≤ 10000
3 | N#Cc1cc(COc2cc3n(c(=O)n2)CC2CCCN32)ccc1Oc1ccc(Cl)c(C(F)(F)F)c1 (stereo not drawn) [Example E77, 2-(4-Chloro-3-(trifluoromethyl)phenoxy)-5-(((1-oxo-1,6,7,8,8a,9-hexahydropyrrolo[1,2′:3,4]imidazo[1,2-c]pyrimidin-3-yl)oxy)methyl)benzonitrile] | ≤ 1 | ≤ 100
4 | O=c1nc(OCc2cc(F)c(Oc3ccc(C(F)(F)F)nc3)c(F)c2)cc2n1CC1CCCN21 (stereo not drawn) [Example E78, 3-((3,5-Difluoro-4-((6-(trifluoromethyl)pyridin-3-yl)oxy)benzyl)oxy)-7,8,8a,9-tetrahydro pyrrolo[1′,2′:3,4]imidazo[1,2-c]pyrimidin-1(6H)-one] | ≤ 1 | ≤ 100
5 | O=c1nc(OCc2cc(F)c(Oc3ccc(C(F)(F)F)nc3)c(F)c2)cc2n1C[C@H]1CCCN21 [Example E79, (R)-3-((3,5-difluoro-4-((6-(trifluoromethyl)pyridin-3-yl)oxy)benzyl)oxy)-7,8,8a,9-tetrahydro pyrrolo[1′,2′:3,4]imidazo[1,2-c]pyrimidin-1(6H)-one] | ≤ 1 | ≤ 100
6 | O=c1nc(OCc2cc(F)c(Oc3ccc(C(F)(F)F)nc3)c(F)c2)cc2n1C[C@@H]1CCCN21 [Example E80, (S)-3-((3,5-difluoro-4-((6-(trifluoromethyl)pyridin-3-yl)oxy)benzyl)oxy)-7,8,8a,9-tetrahydro pyrrolo[1′,2′:3,4]imidazo[1,2-c]pyrimidin-1(6H)-one] | ≤ 100 | ≤ 10000
7 | O=c1nc(OCc2cc(F)c(Oc3cccc(C(F)(F)F)c3)c(F)c2)cc2n1CC1CCCN21 (stereo not drawn) [Example E81, 3-((3,5-difluoro-4-(3-(trifluoromethyl)phenoxy)benzyl)oxy)-7,8,8a,9-tetrahydropyrrolo[1′,2′:3, 4]imidazo[1,2-c]pyrimidin-1(6H)-one] | ≤ 1 | ≤ 100
8 | O=c1nc(OCc2ccc(Oc3ccc(F)c(C(F)(F)F)c3)nc2)cc2n1CC1CCCN21 (stereo not drawn) [Example E82, 3-((6-(4-fluoro-3-(trifluoromethyl)phenoxy)pyridin-3-yl)methoxy)-7,8,8a,9-tetrahydro pyrrolo[1′,2′:3,4]imidazo[1,2-c]pyrimidin-1(6H)-one] | ≤ 100 | ≤ 10000
9 | O=c1nc(OCc2cc(F)c(Oc3cccc(C(F)(F)F)c3)c(F)c2)cc2n1C[C@@H]1CCCN21 [Example E83, (S)-3-((3,5-difluoro-4-(3-(trifluoromethyl)phenoxy)benzyl)oxy)-7,8,8a,9-tetrahydropyrrolo[1′,2′:3, 4]imidazo[1,2-c]pyrimidin-1(6H)-one] | ≤ 1 | ≤ 100
10 | O=c1nc(OCc2ccc(Oc3ccc(F)c(C(F)(F)F)c3)nc2)cc2n1C[C@@H]1CCCN21 [Example E84, (S)-3-((6-(4-fluoro-3-(trifluoromethyl)phenoxy)pyridin-3-yl)methoxy)-7,8,8a,9-tetrahydro pyrrolo[1′,2′:3,4]imidazo[1,2-c]pyrimidin-1(6H)-one] | ≤ 100 | ≤ 10000
11 | N#Cc1cc(COc2cc3n(c(=O)n2)CC2CCCN32)ccc1Oc1cccc(F)c1 (stereo not drawn) [Example E85, 2-(3-fluorophenoxy)-5-(((1-oxo-1,6,7,8,8a,9-hexahydropyrrolo[1,2′:3,4]imidazo[1,2-c]pyrimidin-3-yl)oxy)methyl)benzonitrile] | ≤ 1 | ≤ 100
12 | N#Cc1cc(COc2cc3n(c(=O)n2)C[C@@H]2CCCN32)ccc1Oc1cccc(F)c1 [Example E86, (S)-2-(3-fluorophenoxy)-5-(((1-oxo-1,6,7,8,8a,9-hexahydropyrrolo[1′,2′:3,4]imidazo[1,2-c]pyrimidin-3-yl)oxy)methyl)benzonitrile] | ≤ 100 | ≤ 10000

Next, values leading:

Row | IC50 [1] [nM] | IC50 [2] [nM] | Structure (SMILES)
13 | ≤ 1 | ≤ 100 | N#Cc1cc(COc2cc3n(c(=O)n2)CC2CCCN32)ccc1Oc1cc(F)cc(F)c1 (stereo not drawn) [Example E87, 2-(3,5-Difluorophenoxy)-5-(((1-oxo-1,6,7,8,8a,9-hexahydropyrrolo[1,2′:3,4]imidazo[1,2-c]pyrimidin-3-yl)oxy)methyl)benzonitrile]
14 | ≤ 1 | ≤ 10000 | N#Cc1cc(COc2cc3n(c(=O)n2)C[C@@H]2CCCN32)ccc1Oc1cc(F)cc(F)c1 [Example E88, (S)-2-(3,5-difluorophenoxy)-5-(((1-oxo-1,6,7,8,8a,9-hexahydropyrrolo[1′,2′:3,4]imidazo[1,2-c]pyrimidin-3-yl)oxy)methyl)benzonitrile]
15 | ≤ 100 | ≤ 10000 | O=c1nc(OCc2cc(F)c(F)c(F)c2)cc2n1CC1CCCN21 (stereo not drawn) [Example E89, 3-((3,4,5-Trifluorobenzyl)oxy)-7,8,8a,9-tetrahydropyrrolo[1′,2′:3,4]imidazo[1,2-c] pyrimidin-1(6H)-one]
16 | ≤ 1 | ≤ 100 | O=c1nc(OCc2cc(F)c(Oc3cnc(C(F)(F)F)nc3)c(F)c2)cc2n1CC1CCCN21 (stereo not drawn) [Example E90, 3-((3,5-Difluoro-4-((2-(trifluoromethyl)pyrimidin-5-yl)oxy)benzyl)oxy)-7,8,8a,9-tetrahydro pyrrolo[1′,2′:3,4]imidazo[1,2-c]pyrimidin-1(6H)-one]
17 | ≤ 1 | ≤ 100 | O=c1nc(OCc2cc(F)c(Oc3cnc(C(F)(F)F)nc3)c(F)c2)cc2n1C[C@@H]1CCCN21 [Example E91, (S)-3-((3,5-difluoro-4-((2-(trifluoromethyl)pyrimidin-5-yl)oxy)benzyl)oxy)-7,8,8a,9-tetra hydropyrrolo[1′,2′:3,4]imidazo[1,2-c]pyrimidin-1(6H)-one]
18 | ≤ 100 | ≤ 10000 | O=c1nc(OCc2cc(F)c(OC3CCCC(F)(F)C3)c(F)c2)cc2n1CC1CCCN21 (stereo not drawn) [Example E92, 3-((4-((3,3-difluorocyclohexyl)oxy)-3,5-difluorobenzyl)oxy)-7,8,8a,9-tetrahydropyrrolo[1′,2′:3,4]imidazo[1,2-c]pyrimidin-1(6H)-one]
19 | ≤ 100 | ≤ 10000 | O=c1nc(OCc2cc(F)c(OC3CCCC(F)(F)C3)c(F)c2)cc2n1C[C@@H]1CCCN21 (stereo partly drawn) [Example E93, (S)-3-((4-((3,3-difluorocyclohexyl)oxy)-3,5-difluorobenzyl)oxy)-7,8,8a,9-tetrahydropyrrolo[1′,2′:3,4]imidazo[1,2-c]pyrimidin-1(6H)-one]
20 | ≤ 100 | ≤ 10000 | O=c1nc(OCc2cc(F)c(OC3CCC(F)(F)C3)c(F)c2)cc2n1CC1CCCN21 (stereo not drawn) [Example E94, 3-((4-((3,3-difluorocyclopentyl)oxy)-3,5-difluorobenzyl)oxy)-7,8,8a,9-tetrahydropyrrolo[1′,2′:3,4]imidazo[1,2-c]pyrimidin-1(6H)-one]
21 | ≤ 100 | ≤ 10000 | O=c1nc(OCc2cc(F)c(OC3CCC(F)(F)C3)c(F)c2)cc2n1C[C@@H]1CCCN21 (stereo partly drawn) [Example E95, (S)-3-((4-((3,3-difluorocyclopentyl)oxy)-3,5-difluorobenzyl)oxy)-7,8,8a,9-tetrahydropyrrolo[1′,2′:3,4]imidazo[1,2-c]pyrimidin-1(6H)-one]
22 | ≤ 100 | ≤ 10000 | O=c1nc(OCc2cc(F)c(OC3CN(CCC(F)(F)F)C3)c(F)c2)cc2n1CC1CCCN21 (stereo not drawn) [Example E96, 3-((3,5-Difluoro-4-((1-(3,3,3-trifluoropropyl)azetidin-3-yl)oxy)benzyl)oxy)-7,8,8a,9-tetrahy dropyrrolo[1′,2′:3,4]imidazo[1,2-c]pyrimidin-1(6H)-one]
23 | ≤ 100 | ≤ 10000 | O=c1nc(OCc2cc(F)c(OC3CN(CCC(F)(F)F)C3)c(F)c2)cc2n1C[C@@H]1CCCN21 [Example E97, (S)-3-((3,5-difluoro-4-((1-(3,3,3-trifluoropropyl)azetidin-3-yl)oxy)benzyl)oxy)-7,8,8a,9-tetra hydropyrrolo[1′,2′:3,4]imidazo[1,2-c]pyrimidin-1(6H)-one]
24 | ≤ 100 | ≤ 10000 | CCCCN1CC(Oc2c(F)cc(COc3cc4n(c(=O)n3)CC3CCCN43)cc2F)C1 (stereo not drawn) [Example E98, 3-((4-((1-Butylazetidin-3-yl)oxy)-3,5-difluorobenzyl)oxy)-7,8,8a,9-tetrahydropyrrolo[1′,2′:3,4]imidazo[1,2-c]pyrimidin-1(6H)-one]
